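Values below derive from 48-hour exposures of cells grown in 96-well plates, with endpoints linearly interpolated between the two concentrations bracketing the appropriate inhibition level. At the GI50, growth is halved.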 The source made the active and inactive calls. No stated cut-off is given here; in the data, active = GI50 up to about 1.1 µM and inactive = higher.
Experiments:
Assay in all cases: NCI anticancer screen, dose series, 48 h
MDA-N = system: MDA-N
KM12 = system: KM12
A549 = system: A549
MCF7 = system: MCF7
K562 = system: K562
HOP-92 = system: HOP-92
OVCAR-3 = system: OVCAR-3
IGROV-1 = system: IGROV-1
BT-549 = system: BT-549
PC-3 = system: PC-3
NCI-H226 = system: NCI-H226
OVCAR-5 = system: OVCAR-5
OVCAR-8 = system: OVCAR-8
HCC 2998 = system: HCC 2998
ACHN = system: ACHN
HCT-15 = system: HCT-15
MDA-MB-435 = system: MDA-MB-435
HL-60 = system: HL-60
SK-MEL-2 = system: SK-MEL-2

Compound	GI50 (MDA-N)	GI50 (KM12)	GI50 (A549)	GI50 (MCF7)	GI50 (K562)	GI50 (HOP-92)	GI50 (OVCAR-3)	GI50 (IGROV-1)	GI50 (BT-549)	GI50 (PC-3)	GI50 (NCI-H226)	GI50 (OVCAR-5)	GI50 (OVCAR-8)	GI50 (HCC 2998)	GI50 (ACHN)	GI50 (HCT-15)	GI50 (MDA-MB-435)	GI50 (HL-60)	GI50 (SK-MEL-2)
CCn1c(=O)c2c3ccc(OC)cc3[nH]c2c2ccc(OC)cc21	62.8 µM (inactive)	8.18 µM (inactive)	59.7 µM (inactive)	50.1 µM (inactive)	25.7 µM (inactive)	> 100 µM (inactive)	37.5 µM (inactive)	> 100 µM (inactive)	79.4 µM (inactive)	39.2 µM (inactive)	> 100 µM (inactive)	> 100 µM (inactive)	73.3 µM (inactive)	21.2 µM (inactive)	55.5 µM (inactive)	41.2 µM	> 100 µM (inactive)	–	–
O=C(CC1C=CCS1(=O)=O)NCc1ccccc1 (stereo not given)	> 100 µM (inactive)	> 100 µM (inactive)	> 100 µM (inactive)	> 100 µM (inactive)	> 100 µM (inactive)	> 100 µM (inactive)	> 100 µM (inactive)	> 100 µM (inactive)	> 100 µM (inactive)	> 100 µM (inactive)	> 100 µM (inactive)	> 100 µM (inactive)	> 100 µM (inactive)	> 100 µM (inactive)	> 100 µM (inactive)	> 100 µM	> 100 µM (inactive)	> 100 µM (inactive)	–
O=C(O)CN1CCN2CCCCCN(CC1)CCN(CC(=O)O)CC2	> 100 µM (inactive)	84.7 µM (inactive)	> 100 µM (inactive)	> 100 µM (inactive)	> 100 µM (inactive)	> 100 µM (inactive)	> 100 µM (inactive)	> 100 µM (inactive)	> 100 µM (inactive)	> 100 µM (inactive)	> 100 µM (inactive)	> 100 µM (inactive)	> 100 µM (inactive)	–	> 100 µM (inactive)	> 100 µM	> 100 µM (inactive)	5.26 µM (inactive)	> 100 µM (inactive)
NC(=S)NNCC(=O)CC(O)(C(F)(F)F)C(F)(F)Cl (stereo not given)	> 100 µM (inactive)	> 100 µM (inactive)	> 100 µM (inactive)	> 100 µM (inactive)	> 100 µM (inactive)	> 100 µM (inactive)	> 100 µM (inactive)	> 100 µM (inactive)	> 100 µM (inactive)	> 100 µM (inactive)	> 100 µM (inactive)	> 100 µM (inactive)	> 100 µM (inactive)	–	54.5 µM (inactive)	> 100 µM	> 100 µM (inactive)	97.3 µM (inactive)	> 100 µM (inactive)
C[N+](C)([O-])C12CC3CC(CC(C3)C1)C2	31.8 µM (inactive)	26.8 µM (inactive)	25.8 µM (inactive)	33.1 µM (inactive)	29.4 µM (inactive)	–	16.4 µM (inactive)	25.3 µM (inactive)	34 µM (inactive)	22.4 µM (inactive)	55.2 µM (inactive)	39.6 µM (inactive)	40.1 µM (inactive)	29.4 µM (inactive)	26.4 µM (inactive)	30.6 µM	28.4 µM (inactive)	44.6 µM (inactive)	22.6 µM (inactive)
CC1=C2C(=O)OCC23C=COC3(C)O1 (stereo not given)	29 µM (inactive)	26.9 µM (inactive)	66.7 µM (inactive)	36.2 µM (inactive)	31.8 µM (inactive)	45 µM (inactive)	33.4 µM (inactive)	32.7 µM (inactive)	44.4 µM (inactive)	38.2 µM (inactive)	28.4 µM (inactive)	47.1 µM (inactive)	35.4 µM (inactive)	69.3 µM (inactive)	34.3 µM (inactive)	26.2 µM	20.7 µM (inactive)	–	32.6 µM (inactive)
C[C@H](CCC1=NCCN1)[C@H]1CC[C@H]2[C@@H]3CC[C@@H]4C[C@H](O)CC[C@]4(C)[C@H]3C[C@H](O)[C@]12C	14.6 µM (inactive)	11.8 µM (inactive)	–	12.7 µM (inactive)	5.38 µM (inactive)	12.2 µM (inactive)	12.1 µM (inactive)	7.38 µM (inactive)	18.2 µM (inactive)	4.57 µM (inactive)	14.3 µM (inactive)	14.5 µM (inactive)	15.5 µM (inactive)	13.5 µM (inactive)	16.9 µM (inactive)	53.1 µM	14.5 µM (inactive)	10.8 µM (inactive)	13.8 µM (inactive)
CC(C)=CCC/C(C)=C/CC/C(C)=C/CC/C(C=O)=C/CC/C(C)=C\CC/C(C)=C/CC/C(C)=C/CC/C(C)=C/CC1=CC(=O)C=CC1=O	> 100 µM (inactive)	81.3 µM (inactive)	> 100 µM (inactive)	0.365 µM (active)	> 100 µM (inactive)	> 100 µM (inactive)	54.2 µM (inactive)	31.8 µM (inactive)	> 100 µM (inactive)	> 100 µM (inactive)	–	> 100 µM (inactive)	46.5 µM (inactive)	> 100 µM (inactive)	> 100 µM (inactive)	> 100 µM	56.4 µM (inactive)	–	31.8 µM (inactive)
O=C(c1ccco1)N(C(=S)OC12CC3CC(CC(C3)C1)C2)c1ccccc1	29.4 µM (inactive)	31.2 µM (inactive)	32.2 µM (inactive)	26.2 µM (inactive)	28.6 µM (inactive)	19.5 µM (inactive)	28.1 µM (inactive)	–	34.5 µM (inactive)	20.5 µM (inactive)	27.2 µM (inactive)	39.7 µM (inactive)	31.3 µM (inactive)	25.1 µM (inactive)	27.1 µM (inactive)	28.2 µM	28.9 µM (inactive)	19.3 µM (inactive)	21.2 µM (inactive)
CCOC(=O)c1nc2ccc(C(F)(F)F)cc2nc1Nc1ccc(OC)c(OC)c1	> 100 µM (inactive)	> 100 µM (inactive)	> 100 µM (inactive)	> 100 µM (inactive)	> 100 µM (inactive)	65.2 µM (inactive)	> 100 µM (inactive)	> 100 µM (inactive)	97.9 µM (inactive)	> 100 µM (inactive)	> 100 µM (inactive)	> 100 µM (inactive)	> 100 µM (inactive)	> 100 µM (inactive)	44.1 µM (inactive)	> 100 µM	> 100 µM (inactive)	> 100 µM (inactive)	–
Cc1ccc2c3c(cnc2n1)C(=O)OCCN3C	> 100 µM (inactive)	> 100 µM (inactive)	> 100 µM (inactive)	> 100 µM (inactive)	> 100 µM (inactive)	> 100 µM (inactive)	> 100 µM (inactive)	> 100 µM (inactive)	> 100 µM (inactive)	> 100 µM (inactive)	–	> 100 µM (inactive)	> 100 µM (inactive)	> 100 µM (inactive)	> 100 µM (inactive)	> 100 µM	> 100 µM (inactive)	> 100 µM (inactive)	> 100 µM (inactive)
N=C(CCl)NC1CN2CCC1CC2 (stereo not given)	> 100 µM (inactive)	> 100 µM (inactive)	> 100 µM (inactive)	42.3 µM (inactive)	> 100 µM (inactive)	> 100 µM (inactive)	> 100 µM (inactive)	> 100 µM (inactive)	> 100 µM (inactive)	> 100 µM (inactive)	> 100 µM (inactive)	75 µM (inactive)	> 100 µM (inactive)	–	87.7 µM (inactive)	> 100 µM	> 100 µM (inactive)	18.4 µM (inactive)	> 100 µM (inactive)
CCOC(=O)c1nc2ccc(C(F)(F)F)cc2nc1Nc1cc(OC)c(OC)c(OC)c1	> 100 µM (inactive)	> 100 µM (inactive)	> 100 µM (inactive)	> 100 µM (inactive)	> 100 µM (inactive)	> 100 µM (inactive)	> 100 µM (inactive)	> 100 µM (inactive)	> 100 µM (inactive)	> 100 µM (inactive)	–	> 100 µM (inactive)	> 100 µM (inactive)	> 100 µM (inactive)	> 100 µM (inactive)	> 100 µM	> 100 µM (inactive)	> 100 µM (inactive)	–
COc1c(-c2nc3ccc(N4CCN(C)CC4)cc3[nH]2)cc(OC)c2[nH]c(COC(C)=O)nc12	40.4 µM (inactive)	31.3 µM (inactive)	62.1 µM (inactive)	38.7 µM (inactive)	56.6 µM (inactive)	> 100 µM (inactive)	> 100 µM (inactive)	> 100 µM (inactive)	> 100 µM (inactive)	37.1 µM (inactive)	> 100 µM (inactive)	> 100 µM (inactive)	55.1 µM (inactive)	–	63.4 µM (inactive)	> 100 µM	37.8 µM (inactive)	59.8 µM (inactive)	45.9 µM (inactive)
CC(=O)N[C@H]1CCCC[C@@H]1OC(C)=O	> 100 µM (inactive)	> 100 µM (inactive)	–	> 100 µM (inactive)	> 100 µM (inactive)	> 100 µM (inactive)	> 100 µM (inactive)	> 100 µM (inactive)	> 100 µM (inactive)	> 100 µM (inactive)	> 100 µM (inactive)	> 100 µM (inactive)	> 100 µM (inactive)	> 100 µM (inactive)	> 100 µM (inactive)	> 100 µM	> 100 µM (inactive)	> 100 µM (inactive)	> 100 µM (inactive)
Cc1ccc(S(=O)(=O)N/N=C2/CCC3(O)CC2(C)CCC2[C@H]3CC2(C)C)cc1 (stereo not given in full)	30.7 µM (inactive)	32.6 µM (inactive)	27.3 µM (inactive)	35.5 µM (inactive)	16.9 µM (inactive)	29.2 µM (inactive)	40.2 µM (inactive)	23.5 µM (inactive)	32.1 µM (inactive)	12.5 µM (inactive)	27.2 µM (inactive)	29.4 µM (inactive)	34.7 µM (inactive)	–	29.8 µM (inactive)	27.1 µM	27.8 µM (inactive)	31.3 µM (inactive)	23.8 µM (inactive)

Source: ChEMBL document CHEMBL1201862, “PubChem BioAssay data set” (2004)
